Test results as given in PubChem BioAssay AID248 (DTP/NCI, 2004).
“And” between values parts separate entries of the source, which are not always exact repeats. Equal values may be shown once. Toxic doses and inconclusive results are not listed. Cut-off read from the data, not from the text of the source: active = T/C of 150% or more; inactive = T/C below 125%.

System: L1210 leukemia ip in BDF1 mice, survival T/C
Assay: NCI In Vivo Anticancer Drug Screen. Data for tumor model L1210 Leukemia (intraperitoneal) in B6D2F1 (BDF1) mice
Settings: endpoint: mean survival time, higher = longer survival
Procedure, shortened: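 Value reflects the ratio of survival in compound-treated mice to survival in vehicle-treated controls, with both groups carrying the same transplanted tumor.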

[1] = dose: 100.0 mg/kg/injection, schedule: Q04DX003 (ip), vehicle: Klucel (hydroxypropylcellulose) (HPC)
[2] = dose: 200.0 mg/kg/injection, schedule: Q04DX003 (ip), vehicle: Klucel (hydroxypropylcellulose) (HPC)
[3] = dose: 100.0 mg/kg/injection, schedule: Q01DX009 (ip), vehicle: saline with Tween-80
[4] = dose: 100.0 mg/kg/injection, schedule: Q04DX003 (ip), vehicle: saline with Tween-80
[5] = dose: 200.0 mg/kg/injection, schedule: Q04DX003 (ip), vehicle: saline with Tween-80
[6] = dose: 400.0 mg/kg/injection, schedule: Q04DX003 (ip), vehicle: saline with Tween-80
[7] = dose: 50.0 mg/kg/injection, schedule: Q01DX009 (ip), vehicle: Klucel (hydroxypropylcellulose) (HPC)
[8] = dose: 100.0 mg/kg/injection, schedule: Q01DX009 (ip), vehicle: Klucel (hydroxypropylcellulose) (HPC)
[9] = dose: 200.0 mg/kg/injection, schedule: Q01DX009 (ip), vehicle: Klucel (hydroxypropylcellulose) (HPC)
[10] = dose: 400.0 mg/kg/injection, schedule: Q04DX003 (ip), vehicle: Klucel (hydroxypropylcellulose) (HPC)
[11] = dose: 100.0 mg/kg/injection, schedule: Q01DX001 (ip), vehicle: saline
[12] = dose: 200.0 mg/kg/injection, schedule: Q01DX009 (ip), vehicle: saline with Tween-80
[13] = dose: 400.0 mg/kg/injection, schedule: Q01DX009 (ip), vehicle: saline with Tween-80
[14] = dose: 100.0 mg/kg/injection, schedule: Q01DX001 (ip), vehicle: Klucel (hydroxypropylcellulose) (HPC)
[15] = dose: 200.0 mg/kg/injection, schedule: Q01DX001 (ip), vehicle: Klucel (hydroxypropylcellulose) (HPC)
[16] = dose: 400.0 mg/kg/injection, schedule: Q01DX001 (ip), vehicle: Klucel (hydroxypropylcellulose) (HPC)

Measured: T/C

CC(C)N1CSC(=S)N(C(C)C)C1
inactive: dose: 100.0 mg/kg/injection, schedule: Q04DX002 (ip), vehicle: other 89 % of control | dose: 200.0 mg/kg/injection, schedule: Q04DX002 (ip), vehicle: other 100 % of control | dose: 400.0 mg/kg/injection, schedule: Q04DX002 (ip), vehicle: other 107 % of control

CCN(CC)CCN(CCN(CC)CC)c1ccc2ccccc2c1
inactive: dose: 75.0 mg/kg/injection, schedule: Q01DX001 (ip), vehicle: acetone 111 % of control

C=C(C)C(=O)Nc1ccccc1
inactive: [1] 86 % of control | [2] 89 % of control

CC(=O)c1ccccc1OCC(O)CN1CCN(c2ccccc2)CC1 (stereo not given)
inactive: dose: 25.0 mg/kg/injection, schedule: Q01DX009 (ip), vehicle: saline with Tween-80 94 % of control | dose: 25.0 mg/kg/injection, schedule: Q04DX003 (ip), vehicle: saline with Tween-80 100 % of control | dose: 50.0 mg/kg/injection, schedule: Q01DX009 (ip), vehicle: saline with Tween-80 101 % of control | dose: 50.0 mg/kg/injection, schedule: Q04DX003 (ip), vehicle: saline with Tween-80 103 % of control | [3] 101 % of control | [4] 97 % of control

C=CCNC(=S)Nc1ncn[nH]1
inactive: dose: 75.0 mg/kg/injection, schedule: Q01DX001 (ip), vehicle: carboxymethylcellulose (CMC) 103 % of control | dose: 150.0 mg/kg/injection, schedule: Q01DX001 (ip), vehicle: carboxymethylcellulose (CMC) 104 % of control | dose: 300.0 mg/kg/injection, schedule: Q01DX001 (ip), vehicle: carboxymethylcellulose (CMC) 90 % of control

Cc1cc(C(C)(C)CC(C)(C)C)cc(O)c1O
inactive: dose: 100.0 mg/kg/injection, schedule: Q01DX009 (ip), vehicle: other 94 % of control | dose: 100.0 mg/kg/injection, schedule: Q04DX003 (ip), vehicle: other 96 % of control | dose: 200.0 mg/kg/injection, schedule: Q01DX009 (ip), vehicle: other 94 % of control | dose: 200.0 mg/kg/injection, schedule: Q04DX003 (ip), vehicle: other 93 % of control | dose: 400.0 mg/kg/injection, schedule: Q01DX009 (ip), vehicle: other 94 % of control | dose: 400.0 mg/kg/injection, schedule: Q04DX003 (ip), vehicle: other 91 % of control

Cc1cnccc1N=Nc1ccc(N(C)C)cc1
inactive: [4] 104 % of control | [5] 104 % of control | [6] 101 % of control

c1ccc([Si]2(c3ccccc3)c3ccccc3-c3ccccc32)cc1
inactive: [4] 94 % of control | [5] 87 % of control | [6] 87 % of control

COC(=O)c1ccc(N)cc1O
inactive: dose: 25.0 mg/kg/injection, schedule: Q01DX009 (ip), vehicle: Klucel (hydroxypropylcellulose) (HPC) 101 % of control | [7] 106 % of control | [8] 99 % of control and 101 % of control | [1] 98 % of control | [9] 105 % of control | [2] 102 % of control | [10] 93 % of control

Nc1cc(Cl)c(O)c(Cl)c1
inactive: dose: 12.5 mg/kg/injection, schedule: Q01DX015 (ip), vehicle: saline 97 % of control | dose: 25.0 mg/kg/injection, schedule: Q01DX001 (ip), vehicle: saline with Tween-80 93 % of control | dose: 25.0 mg/kg/injection, schedule: Q01DX015 (ip), vehicle: saline 100 % of control | dose: 50.0 mg/kg/injection, schedule: Q01DX001 (ip), vehicle: saline with Tween-80 92 % of control | dose: 50.0 mg/kg/injection, schedule: Q01DX015 (ip), vehicle: saline 97 % of control | dose: 100.0 mg/kg/injection, schedule: Q01DX001 (ip), vehicle: carboxymethylcellulose (CMC) 93 % of control | [11] 93 % of control | dose: 100.0 mg/kg/injection, schedule: Q01DX015 (ip), vehicle: saline 91 % of control

O=C(Cl)C1C2C=CC(C2)C1C(=O)Cl (stereo not given)
inactive: dose: 50.0 mg/kg/injection, schedule: Q01DX001 (ip), vehicle: saline 108 % of control | [11] 97 % of control

c1ccc(C2=Nc3ccccc3C(c3ccccc3)=Nc3ccccc32)cc1
inactive: [3] 89 % of control | [12] 97 % of control | [13] 89 % of control

CC(=O)CCC1(C)OC(=O)C(C)C2C1CCC1(C)C(=O)CCC21 (stereo not given)
inactive: dose: 50.0 mg/kg/injection, schedule: Q01DX001 (sc), vehicle: steriod suspending solution 101 % of control | dose: 100.0 mg/kg/injection, schedule: Q01DX001 (sc), vehicle: steriod suspending solution 103 % of control | dose: 200.0 mg/kg/injection, schedule: Q01DX001 (sc), vehicle: steriod suspending solution 113 % of control | dose: 400.0 mg/kg/injection, schedule: Q01DX001 (sc), vehicle: steriod suspending solution 101 % of control

CN(C)c1ccc(C=Nc2ccc(Cc3ccncc3)cc2)cc1
inactive: [8] 99 % of control | [9] 98 % of control | dose: 400.0 mg/kg/injection, schedule: Q01DX009 (ip), vehicle: Klucel (hydroxypropylcellulose) (HPC) 100 % of control

CCOC(=O)c1cnc2c(ccc3cc(OC)ccc32)c1Cl
inactive: [7] 101 % of control | [8] 97 % of control | [9] 101 % of control

O=C(O)CC(Nc1ccc([N+](=O)[O-])cc1[N+](=O)[O-])C(=O)O (stereo not given)
inactive: dose: 100.0 mg/kg/injection, schedule: Q04DX003 (ip), vehicle: saline 96 % of control | dose: 200.0 mg/kg/injection, schedule: Q04DX003 (ip), vehicle: saline 100 % of control | dose: 400.0 mg/kg/injection, schedule: Q04DX003 (ip), vehicle: saline 120 % of control

CCOC(=O)C(NC(=O)NS(=O)(=O)c1ccc(C)cc1)C(=O)OCC
inactive: [14] 91 % of control | [15] 92 % of control | [16] 91 % of control

Cc1ccc(C(=O)c2ccn[nH]2)cc1
inactive: [14] 93 % of control | [1] 96 % of control | [15] 94 % of control | [2] 93 % of control | [16] 98 % of control | [10] 96 % of control

Cc1cc(OCc2nc(N)nc(N)c2-c2ccc(Cl)c(Cl)c2)ccc1NC(=O)c1ccc(S(=O)(=O)F)cc1
inactive: dose: 75.0 mg/kg/injection, schedule: Q01DX001 (ip), vehicle: saline with Tween-80 100 % of control

CCOC(=O)C(C(=O)OCC)C(=O)c1cccc2c1ccc1ccccc12
inactive: dose: 100.0 mg/kg/injection, schedule: Q04DX002 (ip), vehicle: saline with Tween-80 95 % of control | dose: 200.0 mg/kg/injection, schedule: Q04DX002 (ip), vehicle: saline with Tween-80 107 % of control | dose: 400.0 mg/kg/injection, schedule: Q04DX002 (ip), vehicle: saline with Tween-80 100 % of control

C[C@]1(O)CC[C@H]2[C@@H]3CC[C@@H]4C[C@H](O)CC[C@]4(C)[C@@]3(F)[C@@H](O)C[C@@]21C
inactive: dose: 50.0 mg/kg/injection, schedule: Q01DX Z (sc), vehicle: steriod suspending solution 107 % of control | dose: 250.0 mg/kg/injection, schedule: Q01DX Z (sc), vehicle: steriod suspending solution 101 % of control | dose: 500.0 mg/kg/injection, schedule: Q01DX Z (sc), vehicle: steriod suspending solution 95 % of control

CC1(C)OC2COC3(COC(C)(C)O3)C(OS(C)(=O)=O)C2O1 (stereo not given)
inactive: [4] 92 % of control | [5] 95 % of control | [6] 95 % of control

O=C(COc1cc(Cl)c(Cl)cc1Cl)Oc1ccc(Cl)cc1Cl
inactive: dose: 100.0 mg/kg/injection, schedule: Q04DX002 (ip), vehicle: Klucel (hydroxypropylcellulose) (HPC) 94 % of control | dose: 200.0 mg/kg/injection, schedule: Q04DX002 (ip), vehicle: Klucel (hydroxypropylcellulose) (HPC) 91 % of control | dose: 400.0 mg/kg/injection, schedule: Q04DX002 (ip), vehicle: Klucel (hydroxypropylcellulose) (HPC) 98 % of control

CNc1nc2nc[nH]c2c(=S)n1C
inactive: [11] 103 % of control | dose: 200.0 mg/kg/injection, schedule: Q01DX001 (ip), vehicle: saline 100 % of control

Cc1ccc(/C=N/NC(=O)CNC(=O)c2ccccc2)cc1
inactive: [3] 93 % of control | [12] 96 % of control | [13] 98 % of control

CN(C)/C=C1/C=Cc2ccccc21
inactive: dose: 100.0 mg/kg/injection, schedule: Q01DX009 (ip), vehicle: saline 98 % of control | dose: 200.0 mg/kg/injection, schedule: Q01DX009 (ip), vehicle: saline 101 % of control | dose: 400.0 mg/kg/injection, schedule: Q01DX009 (ip), vehicle: saline 97 % of control
